Measurements: paper PMC6421105 (Bioorganic & medicinal chemistry, 2019)

What was measured:
T. cruzi (amastigotes) = experiment: T. cruzi amastigote assay; assay type: cell-based, Trypanosoma cruzi; conditions: for IC50: Trypanosoma cruzi, Vero, 72 h, read-out: T. cruzi (amastigotes) ED50; for Antiparasitic activity against intracellular T. cruzi (in words): amastigotes
intracellular T. cruzi = conditions: racemic mixture; cited from earlier work
Vero cells = assay type: cell-based; conditions: for Cytotoxicity at 15 µM / Cytotoxicity at 20 µM: 72 h; for Cytotoxicity ED50: treatment for 72 h
truncated TcSQS = conditions: soluble enzyme cloned and expressed in Escherichia coli; cited from earlier work
[1] = system: mitochondrial and glycosomal TcSQS (wild type); conditions: membrane protein; cited from earlier work

Question: What does the source list for `N#C[Se]CC1Cc2ccc(Oc3ccccc3)cc2O1` (racemic) [(±)-8]?
Answer: IC50 (T. cruzi (amastigotes)): 0.0939 ± 0.025 µM; ED50 against intracellular T. cruzi (intracellular T. cruzi): 0.083 µM

Question: Which IC50 (T. cruzi (amastigotes)) does the source give for `FC(F)(F)SCCOc1ccc(Oc2ccccc2)cc1` [Compound 9, (2-(4-Phenoxyphenoxy)ethyl)(trifluoromethyl)sulfane] here?
Answer: > 10 µM

Question: For `FC(F)(F)[Se]CCOc1cccc(Oc2ccccc2)c1` [Compound 12, (2-(3-Phenoxyphenoxy)ethyl)(trifluoromethyl)selane], which IC50 (T. cruzi (amastigotes)) is on record?
Answer: > 1 µM

Question: With `N#CCCOc1ccc(Oc2ccccc2)cc1` [Compound 13, 4-Phenoxyphenoxyethyl cyanide] as the compound, how does the IC50 (T. cruzi (amastigotes)) read?
Answer: > 10 µM

Question: And the “Antiparasitic activity against intracellular T. cruzi (in words)” value (T. cruzi (amastigotes))?
Answer: inactive

Question: What does the source list for `N#CCCCOc1ccc(Oc2ccccc2)cc1` [Compound 14, 3-(4-Phenoxyphenoxy)propyl cyanide]?
Answer: IC50 (T. cruzi (amastigotes)): > 10 µM; Antiparasitic activity against intracellular T. cruzi (in words) (T. cruzi (amastigotes)): inactive

Question: What does the source list for `COc1ccc(OCC[Se]C#N)cc1` [Compound 20, 4-Methoxyphenoxyethyl selenocyanate]?
Answer: IC50 (T. cruzi (amastigotes)): > 10 µM; T. cruzi (amastigotes) inhibition at 6 µM (T. cruzi (amastigotes); at 6 µM): no inhibition; Cytotoxicity at 15 µM (Vero cells): ^**cytotoxic at 20 µM, 15 µM; Cytotoxicity at 20 µM (Vero cells): ^**cytotoxic at 20 µM, 15 µM

Question: Which IC50 (T. cruzi (amastigotes)) does the source give for `N#C[Se]CCOc1ccccc1` [Compound 21, Phenoxyethyl selenocyanate] here?
Answer: > 10 µM

Question: And the “Cytotoxicity at 20 µM” value (Vero cells)?
Answer: ^**cytotoxic at 20 µM

Question: With `N#C[Se]CCOc1ccc([N+](=O)[O-])cc1` [Compound 22, 4-Nitrophenoxyethyl selenocyanate] as the compound, how does the IC50 (T. cruzi (amastigotes)) read?
Answer: 3.87 ± 1.3 µM

Question: And the “Cytotoxicity at 15 µM” value (Vero cells)?
Answer: ^**cytotoxic at 20 µM, 15 µM

Question: What about the “Cytotoxicity at 20 µM” value (Vero cells) of the same compound?
Answer: ^**cytotoxic at 20 µM, 15 µM

Question: Which IC50 (T. cruzi (amastigotes)) does the source give for `N#C[Se]CCOc1ccccc1Oc1ccccc1` [Compound 43, 2-Phenoxyphenoxyethyl selenocyanate] here?
Answer: > 10 µM

Question: And the “Antiparasitic activity against intracellular T. cruzi (in words)” value (T. cruzi (amastigotes))?
Answer: free of anti-T. cruzi activity

Question: Which results are given for `N#CSCCOc1ccccc1Oc1ccccc1` [Compound 44, 2-Phenoxyphenoxyethyl thiocyanate]?
Answer: IC50 (T. cruzi (amastigotes)): > 10 µM; Antiparasitic activity against intracellular T. cruzi (in words) (T. cruzi (amastigotes)): free of anti-T. cruzi activity

Question: For `N#CSCCOc1ccc(Oc2ccccc2)cc1` [WC-9, 4-Phenoxyphenoxyethyl Thiocyanate], which “Inhibition of truncated TcSQS (in words)” value (truncated TcSQS) is on record?
Answer: inactive

Question: What about the “Inhibition of TcSQS enzymatic activity (in words)” value [1] of the same compound?
Answer: non-competitive nanomolar inhibitor

Question: For `O=C(Cn1ccnc1[N+](=O)[O-])NCc1ccccc1` [benznidazole, reference compound], which IC50 (T. cruzi (amastigotes)) is on record?
Answer: 2.48 ± 0.45 µM

Question: Which “T. cruzi (amastigotes) % inhibition at 1.0 µM” value (T. cruzi (amastigotes); at 1.0 µM) does the source give for “(2-(3-Phenoxyphenoxy)ethyl)(trifluoromethyl)sulfane [Compound 10]” here?
Answer: 6.7%

Question: And the “Cytotoxicity ED50” value (Vero cells)?
Answer: > 20 µM

Question: Which “Cytotoxicity ED50” value (Vero cells) does the source give for “(2-(4-Phenoxyphenoxy)ethyl)(trifluoromethyl)selane [Compound 11]” here?
Answer: > 20 µM
